Reference: US10080365B2, “Use of strobilurin type compounds for combating phytopathogenic fungi resistant to Qo inhibitors” (BASF SE, priority 2011, dated 2018)

Key:
[1] = system: Septoria tritici (Qo-inhibitor-resistant, G143A mutant); test: Microtiter test, Septoria tritici Qo-inhibitor-resistant G143A mutant (Use Example 1); format: cell-based; conditions: for IC50: microtiter test, Qo-inhibitor-resistant G143A mutant, turbidity at 620 nm, read-out: Resistant Septoria tritici isolate (G143A mutation) (R-IC50); for Resistance factor RF = R-IC50/S-IC50: ratio of IC50 for G143A resistant isolate to IC50 for wild-type sensitive isolate
Description: (§1) The active substances were formulated separately as a stock solution in dimethyl sulfoxide (DMSO) at a concentration of 10 000 ppm.
(§2) Activity against the Septoria blotch pathogen caused by Septoria tritici in the microtiter test
(§3) Fungal strains used: • a) Septoria tritici (Qo-inhibitor sensitive, wild-type) • b) Septoria tritici (Qo-inhibitor-resistant, G143A mutant)
(§4) 100 ml 2% Malt extract in water at pH6.8 were inoculated with microspores from 2 week old cultures grown on 2% malt extract+2% agar in Petri dishes and incubated for 3 days on a rotary shaker at 24° C. und 150 rpm. The culture was harvested, glycerol was added (15% (v/v) and kept frozen at −20° C. in aliquots of 1 ml.
(§5) 1 ml stock suspension was thawed and suspended into 800 ml of 2% malt extract in water at pH 6.8. Compounds were diluted from stock solution in (dimethylsulfoxide) DMSO in 10 steps. The compound solutions were diluted 1/5 with sterile deionized water before use. 5 μl of the compound solutions were transferred into empty microplates. The plates were then filled with 195 μl of the microspore suspension of each strain.
(§6) The antifungal activity was determined by measuring the turbidity of a culture in 96-well microplates in the presence of test compounds. Fungal growth was measured by recording the optical density at 620 nm every 15 h for 150 h. The relative antifungal activity was calculated by comparison of the effect of the test compounds with the effect of a DMSO control and a standard fungicide.
(§7) IC50-values (concentration of test compound resulting in 50% inhibition of fungal growth) were calculated from the resulting dose-response for each compound and strain. The initial concentration of the test compounds and the 10 steps of dilution (1:4 each) allowed IC50-values from 0.001 to 100 μmol/l (μM) to be assessed.

[2] = system: Septoria tritici (Qo-inhibitor sensitive, wild-type); test: Microtiter test, Septoria tritici Qo-inhibitor sensitive wild-type (Use Example 1); format: cell-based; conditions: turbidity at 620 nm, read-out: Sensitive Septoria tritici isolate (wild type) (S-IC50)
Description: as §1, §2, §3, §4, §5, §6, §7

Structure (SMILES): CO/C=C(/C(=O)OC)c1ccccc1Oc1cc(Oc2ccccc2C#N)ncn1 [Azoxystrobin, reference compound]
- IC50 [1]: > 100 µM
- IC50 [2]: 3.5 µM

Structure (SMILES): CON=C(C(=O)OC)C(C)=CCOc1ccn(-c2ccc(Cl)cc2)n1 [Compound I-5]
- IC50 [1]: 2.2 µM
- Resistance factor RF = R-IC50/S-IC50 [1]: 26
- IC50 [2]: 0.083 µM

Structure (SMILES): C=CCON=C(C)c1cc(C)c(OCC=C(C)C(=NOC)C(=O)NC)cc1C [Compound I-82]
- IC50 [1]: 6.8 µM
- Resistance factor RF = R-IC50/S-IC50 [1]: 6
- IC50 [2]: 1.1 µM

Structure (SMILES): C=CCON=C(C)c1ccc(OCC=C(C)C(=NOC)C(=O)NC)c(C)c1 [Compound I-83]
- IC50 [1]: 7.6 µM
- Resistance factor RF = R-IC50/S-IC50 [1]: 4.6
- IC50 [2]: 1.6 µM

Structure (SMILES): C=C(Cl)CON=C(C)c1cc(C)c(OCC=C(C)C(=NOC)C(=O)NC)cc1C [Compound I-84]
- IC50 [1]: 16.1 µM
- Resistance factor RF = R-IC50/S-IC50 [1]: 33
- IC50 [2]: 0.5 µM

Structure (SMILES): C=C(Cl)CON=C(C)c1ccc(OCC=C(C)C(=NOC)C(=O)NC)c(C)c1 [Compound I-85]
- IC50 [1]: 22 µM
- Resistance factor RF = R-IC50/S-IC50 [1]: 29
- IC50 [2]: 0.8 µM

Structure (SMILES): CC=CCON=C(C)c1cc(C)c(OCC=C(C)C(=NOC)C(=O)NC)cc1C [Compound I-90]
- IC50 [1]: 26 µM
- Resistance factor RF = R-IC50/S-IC50 [1]: 26
- IC50 [2]: 1 µM

Structure (SMILES): CC=CCON=C(C)c1ccc(OCC=C(C)C(=NOC)C(=O)NC)c(C)c1 [Compound I-91]
- IC50 [1]: 27 µM
- Resistance factor RF = R-IC50/S-IC50 [1]: 17
- IC50 [2]: 1.6 µM

Structure (SMILES): C=CCON=C(C)c1cc(C)c(OCC=C(C)C(=NOC)C(=O)OC)cc1C [Compound I-94]
- IC50 [1]: 12 µM
- Resistance factor RF = R-IC50/S-IC50 [1]: 22
- IC50 [2]: 0.6 µM

Structure (SMILES): C=CCON=C(C)c1ccc(OCC=C(C)C(=NOC)C(=O)OC)c(C)c1 [Compound I-95]
- IC50 [1]: 29 µM
- Resistance factor RF = R-IC50/S-IC50 [1]: 14
- IC50 [2]: 2.2 µM

Structure (SMILES): C=C(Cl)CON=C(C)c1ccc(OCC=C(C)C(=NOC)C(=O)OC)c(C)c1 [Compound I-97]
- IC50 [1]: 49 µM
- Resistance factor RF = R-IC50/S-IC50 [1]: 29
- IC50 [2]: 1.7 µM

Structure (SMILES): CCON=C(C)c1ccc(OCC=C(C)C(=NOC)C(=O)OC)c(C)c1 [Compound I-191]
- IC50 [1]: 37 µM
- Resistance factor RF = R-IC50/S-IC50 [1]: 29
- IC50 [2]: 1.3 µM

Structure (SMILES): Cc1cc(-n2cccn2)ccc1OCc1ccccc1-n1nnn(C)c1=O [Compound I-212]
- IC50 [1]: 8.3 µM
- Resistance factor RF = R-IC50/S-IC50 [1]: 6
- IC50 [2]: 1.4 µM

Structure (SMILES): CC(=NOCc1ccccc1-n1nnn(C)c1=O)c1cccc(-c2cnn(-c3ccccc3)c2)c1 [Compound I-213]
- IC50 [1]: 0.057 µM
- Resistance factor RF = R-IC50/S-IC50 [1]: 0.7
- IC50 [2]: 0.076 µM

Structure (SMILES): C/C(=N\OC/C=C/Cl)c1ccc(OCc2ccccc2-n2nnn(C)c2=O)c(C)c1 [Compound I-217]
- IC50 [1]: 63 µM
- Resistance factor RF = R-IC50/S-IC50 [1]: 10
- IC50 [2]: 6.3 µM

Structure (SMILES): C=CCO/N=C(\C)c1ccc(OCc2ccccc2-n2nnn(C)c2=O)c(C)c1 [Compound I-218]
- IC50 [1]: 79 µM
- Resistance factor RF = R-IC50/S-IC50 [1]: 14
- IC50 [2]: 5.6 µM

Structure (SMILES): C#CCO/N=C(\C)c1ccc(OCc2ccccc2-n2nnn(C)c2=O)c(C)c1 [Compound I-221]
- IC50 [1]: 10 µM
- Resistance factor RF = R-IC50/S-IC50 [1]: 3
- IC50 [2]: 3.4 µM

Structure (SMILES): C/C(=N\OC/C=C/Cl)c1cc(C)c(OCc2ccccc2-n2nnn(C)c2=O)cc1C [Compound I-223]
- IC50 [1]: 19 µM
- Resistance factor RF = R-IC50/S-IC50 [1]: 7
- IC50 [2]: 2.7 µM

Structure (SMILES): C=CCO/N=C(\C)c1cc(C)c(OCc2ccccc2-n2nnn(C)c2=O)cc1C [Compound I-224]
- IC50 [1]: 5.4 µM
- Resistance factor RF = R-IC50/S-IC50 [1]: 3.2
- IC50 [2]: 1.7 µM

Structure (SMILES): C/C=C/CO/N=C(\C)c1cc(C)c(OCc2ccccc2-n2nnn(C)c2=O)cc1C [Compound I-225]
- IC50 [1]: 72 µM
- Resistance factor RF = R-IC50/S-IC50 [1]: 21
- IC50 [2]: 3.4 µM

Structure (SMILES): C/C(=N\OC/C=C\Cl)c1cc(C)c(OCc2ccccc2-n2nnn(C)c2=O)cc1C [Compound I-228]
- IC50 [1]: 10 µM
- Resistance factor RF = R-IC50/S-IC50 [1]: 3.0
- IC50 [2]: 3.4 µM

Structure (SMILES): CC(Cc1ccc(Cl)cc1)=NOCc1ccccc1-n1nnn(C)c1=O [Compound I-230]
- IC50 [1]: 25 µM
- Resistance factor RF = R-IC50/S-IC50 [1]: 8
- IC50 [2]: 3.2 µM

Structure (SMILES): CO/N=C(\C)c1ccc(OCc2ccccc2-n2nnn(C)c2=O)c(C)c1 [Compound I-233]
- IC50 [1]: 2.7 µM
- Resistance factor RF = R-IC50/S-IC50 [1]: 12
- IC50 [2]: 0.24 µM

Structure (SMILES): CCC/C(=N\OC)c1cc(C)c(OCc2ccccc2-n2nnn(C)c2=O)cc1C [Compound I-234]
- IC50 [1]: 4 µM
- Resistance factor RF = R-IC50/S-IC50 [1]: 1.7
- IC50 [2]: 2.4 µM

Structure (SMILES): CCC/C(=N\OC)c1ccc(OCc2ccccc2-n2nnn(C)c2=O)c(C)c1 [Compound I-235]
- IC50 [1]: 51 µM
- Resistance factor RF = R-IC50/S-IC50 [1]: 4
- IC50 [2]: 13 µM

Structure (SMILES): CCON=C(c1ccc(OCc2ccccc2-n2nnn(C)c2=O)c(C)c1)C1CC1 [Compound I-236]
- IC50 [1]: 24 µM
- Resistance factor RF = R-IC50/S-IC50 [1]: 4
- IC50 [2]: 6 µM

Structure (SMILES): CCON=C(CC)c1ccc(OCc2ccccc2-n2nnn(C)c2=O)c(C)c1 [Compound I-238]
- IC50 [1]: 12 µM
- Resistance factor RF = R-IC50/S-IC50 [1]: 1.9
- IC50 [2]: 6 µM

Structure (SMILES): Cn1nnn(-c2ccccc2COc2nn(-c3ccc(Cl)cc3)cc2Cl)c1=O [Compound I-243]
- IC50 [1]: 15 µM
- Resistance factor RF = R-IC50/S-IC50 [1]: 3.6
- IC50 [2]: 4.1 µM

Structure (SMILES): Cc1cn(-c2ccc(Cl)cc2)nc1OCc1ccccc1-n1nnn(C)c1=O [Compound I-244]
- IC50 [1]: 1.3 µM
- Resistance factor RF = R-IC50/S-IC50 [1]: 2.0
- IC50 [2]: 0.6 µM

Structure (SMILES): Cn1nnn(-c2ccccc2COc2ccn(-c3cccc(C(F)(F)F)c3)n2)c1=O [Compound I-247]
- IC50 [1]: 9 µM
- Resistance factor RF = R-IC50/S-IC50 [1]: 1.9
- IC50 [2]: 5 µM

Structure (SMILES): CCON=C(C)c1ccc(OCc2ccccc2-n2nnn(C)c2=O)c(C)c1 [Compound I-249]
- IC50 [1]: 11 µM
- Resistance factor RF = R-IC50/S-IC50 [1]: 5
- IC50 [2]: 2.4 µM

Structure (SMILES): CCCC(=NOCC)c1cc(C)c(OCc2ccccc2-n2nnn(C)c2=O)cc1C [Compound I-250]
- IC50 [1]: 97 µM
- Resistance factor RF = R-IC50/S-IC50 [1]: 5
- IC50 [2]: 19 µM

Structure (SMILES): CCON=C(C)c1cc(C)c(OCc2ccccc2-n2nnn(CC)c2=O)cc1C [Compound I-255]
- IC50 [1]: 42 µM
- Resistance factor RF = R-IC50/S-IC50 [1]: 2.2
- IC50 [2]: 19 µM

Structure (SMILES): CCC(=NOC)c1ccc(OCc2ccccc2-n2nnn(CC)c2=O)c(C)c1 [Compound I-256]
- IC50 [1]: 24 µM
- Resistance factor RF = R-IC50/S-IC50 [1]: 1.1
- IC50 [2]: 21 µM

Structure (SMILES): CCn1nnn(-c2ccccc2COc2cc(C)c(C(C)=NOC)cc2C)c1=O [Compound I-257]
- IC50 [1]: 67 µM
- Resistance factor RF = R-IC50/S-IC50 [1]: 4.5
- IC50 [2]: 15 µM

Structure (SMILES): Cc1ccc(-n2cc(C)c(OCc3ccccc3-n3nnn(C)c3=O)n2)cc1 [Compound I-260]
- IC50 [1]: 3.3 µM
- Resistance factor RF = R-IC50/S-IC50 [1]: 1.4
- IC50 [2]: 2.3 µM

Structure (SMILES): CCc1ccc(-n2cc(C)c(OCc3ccccc3-n3nnn(C)c3=O)n2)cc1 [Compound I-261]
- IC50 [1]: 5 µM
- Resistance factor RF = R-IC50/S-IC50 [1]: 1.6
- IC50 [2]: 2.9 µM

Structure (SMILES): Cc1ccc(-n2cc(C)c(OCc3ccccc3-n3nnn(C)c3=O)n2)cc1C [Compound I-262]
- IC50 [1]: 1.6 µM
- Resistance factor RF = R-IC50/S-IC50 [1]: 1.6
- IC50 [2]: 1 µM

Structure (SMILES): Cc1ccc(-n2cc(C)c(OCc3ccccc3-n3nnn(C)c3=O)n2)c(C)c1 [Compound I-265]
- IC50 [1]: 4 µM
- Resistance factor RF = R-IC50/S-IC50 [1]: 1.1
- IC50 [2]: 3.8 µM
